Columns and labels:
Type in all cases: functional
SF-539 = experiment: Growth inhibition of human SF539 cells assessed as cell growth at 3X10'-6 M after 48 hrs by sulforhodamine B assay; details: SF-539, 48 h, read-out: Activity
M14 = experiment: Growth inhibition of human M14 cells assessed as cell growth at 3X10'-5 M after 48 hrs by sulforhodamine B assay; details: M14, 48 h, read-out: Activity
IGROV-1 [1] = experiment: Growth inhibition of human IGROV1 cells assessed as cell growth at 3X10'-9 M after 48 hrs by sulforhodamine B assay; details: IGROV-1, 48 h, read-out: Activity
SK-MEL-5 = experiment: Growth inhibition of human SK-MEL-5 cells assessed as cell growth at 3X10'-5 M after 48 hrs by sulforhodamine B assay; details: SK-MEL-5, 48 h, read-out: Activity
HCT-116 = experiment: Growth inhibition of human HCT116 cells assessed as cell growth at 3X10'-8 M after 48 hrs by sulforhodamine B assay; details: HCT-116, 48 h, read-out: Activity
OVCAR-5 = experiment: Growth inhibition of human OVCAR5 cells assessed as cell growth at 3X10'-8 M after 48 hrs by sulforhodamine B assay; details: OVCAR-5, 48 h, read-out: Activity
KM12 [2] = experiment: Growth inhibition of human KM12 cells assessed as cell growth at 3X10'-8 M after 48 hrs by sulforhodamine B assay; details: KM12, 48 h, read-out: Activity
OVCAR-4 = experiment: Growth inhibition of human OVCAR4 cells assessed as cell growth at 3X10'-5 M after 48 hrs by sulforhodamine B assay; details: OVCAR-4, 48 h, read-out: Activity
K562 = experiment: Growth inhibition of human K562 cells assessed as cell growth at 3X10'-7 M after 48 hrs by sulforhodamine B assay; details: K562, 48 h, read-out: Activity
SNB-19 = experiment: Growth inhibition of human SNB19 cells assessed as cell growth at 3X10'-9 M after 48 hrs by sulforhodamine B assay; details: SNB-19, 48 h, read-out: Activity
DU-145 = experiment: Growth inhibition of human DU145 cells assessed as cell growth at 3X10'-5 M after 48 hrs by sulforhodamine B assay; details: DU-145, 48 h, read-out: Activity
HCT-15 [3] = experiment: Growth inhibition of human HCT15 cells assessed as cell growth at 3X10'-8 M after 48 hrs by sulforhodamine B assay; details: HCT-15, 48 h, read-out: Activity
MDA-MB-231 = experiment: Growth inhibition of human MDA-MB-231 cells assessed as cell growth at 3X10'-8 M after 48 hrs by sulforhodamine B assay; details: MDA-MB-231, 48 h, read-out: Activity
MDA-MB-468 [4] = experiment: Growth inhibition of human MDA-MB-468 cells assessed as cell growth at 3X10'-7 M after 48 hrs by sulforhodamine B assay; details: MDA-MB-468, 48 h, read-out: Activity
SK-OV-3 [5] = experiment: Growth inhibition of human SKOV3 cells assessed as cell growth at 3X10'-8 M after 48 hrs by sulforhodamine B assay; details: SK-OV-3, 48 h, read-out: Activity
SW-620 [6] = experiment: Growth inhibition of human SW620 cells assessed as cell growth at 3X10'-8 M after 48 hrs by sulforhodamine B assay; details: SW-620, 48 h, read-out: Activity
HCT-15 [7] = experiment: Growth inhibition of human HCT15 cells assessed as cell growth at 3X10'-9 M after 48 hrs by sulforhodamine B assay; details: HCT-15, 48 h, read-out: Activity
NCI-H322M = experiment: Growth inhibition of human NCI-H322M cells assessed as cell growth at 3X10'-9 M after 48 hrs by sulforhodamine B assay; details: read-out: Activity
SK-OV-3 [8] = experiment: Growth inhibition of human SKOV3 cells assessed as cell growth at 3X10'-6 M after 48 hrs by sulforhodamine B assay; details: SK-OV-3, 48 h, read-out: Activity
[9] = Growth inhibition of human HCC2998 cells assessed as cell growth at 3X10'-6 M after 48 hrs by sulforhodamine B assay; details: HCC 2998, 48 h, read-out: Activity
SN12C = experiment: Growth inhibition of human SN12C cells assessed as cell growth at 3X10'-5 M after 48 hrs by sulforhodamine B assay; details: read-out: Activity
SK-OV-3 [10] = experiment: Growth inhibition of human SKOV3 cells assessed as cell growth at 3X10'-5 M after 48 hrs by sulforhodamine B assay; details: SK-OV-3, 48 h, read-out: Activity
KM12 [11] = experiment: Growth inhibition of human KM12 cells assessed as cell growth at 3X10'-7 M after 48 hrs by sulforhodamine B assay; details: KM12, 48 h, read-out: Activity
RXF 393 = experiment: Growth inhibition of human RXF393 cells assessed as cell growth at 3X10'-9 M after 48 hrs by sulforhodamine B assay; details: RXF 393, 48 h, read-out: Activity
U-251 = experiment: Growth inhibition of human U251 cells assessed as cell growth at 3X10'-6 M after 48 hrs by sulforhodamine B assay; details: U-251, 48 h, read-out: Activity
[12] = Growth inhibition of human NCI-ADR-RES cells assessed as cell growth at 3X10'-7 M after 48 hrs by sulforhodamine B assay; details: read-out: Activity
NCI-H23 = experiment: Growth inhibition of human NCI-H23 cells assessed as cell growth at 3X10'-5 M after 48 hrs by sulforhodamine B assay; details: NCI-H23, 48 h, read-out: Activity
SF-295 = experiment: Growth inhibition of human SF295 cells assessed as cell growth at 3X10'-9 M after 48 hrs by sulforhodamine B assay; details: SF-295, 48 h, read-out: Activity
HOP-92 = experiment: Growth inhibition of human HOP92 cells assessed as cell growth at 3X10'-6 M after 48 hrs by sulforhodamine B assay; details: HOP-92, 48 h, read-out: Activity
CCRF-CEM [13] = experiment: Growth inhibition of human CCRF-CEM cells assessed as cell growth at 3X10'-9 M after 48 hrs by sulforhodamine B assay; details: read-out: Activity
MDA-MB-468 [14] = experiment: Growth inhibition of human MDA-MB-468 cells assessed as cell growth at 3X10'-9 M after 48 hrs by sulforhodamine B assay; details: MDA-MB-468, 48 h, read-out: Activity
[15] = Growth inhibition of human NCI-ADR-RES cells assessed as cell growth at 3X10'-5 M after 48 hrs by sulforhodamine B assay; details: read-out: Activity
SW-620 [16] = experiment: Growth inhibition of human SW620 cells assessed as cell growth at 3X10'-5 M after 48 hrs by sulforhodamine B assay; details: SW-620, 48 h, read-out: Activity
ACHN = experiment: Growth inhibition of human ACHN cells assessed as cell growth at 3X10'-9 M after 48 hrs by sulforhodamine B assay; details: read-out: Activity
PC-3 = experiment: Growth inhibition of human PC3 cells assessed as cell growth at 3X10'-6 M after 48 hrs by sulforhodamine B assay; details: PC-3, 48 h, read-out: Activity
IGROV-1 [17] = experiment: Growth inhibition of human IGROV1 cells assessed as cell growth at 3X10'-8 M after 48 hrs by sulforhodamine B assay; details: IGROV-1, 48 h, read-out: Activity
CCRF-CEM [18] = experiment: Growth inhibition of human CCRF-CEM cells assessed as cell growth at 3X10'-7 M after 48 hrs by sulforhodamine B assay; details: read-out: Activity

Row | SMILES | growth at 3 µM (SF-539) [%] | growth at 30 µM (M14) [%] | growth at 0.003 µM (IGROV-1 [1]) [%] | growth at 30 µM (SK-MEL-5) [%] | growth at 0.03 µM (HCT-116) [%] | growth at 0.03 µM (OVCAR-5) [%] | growth at 0.03 µM (KM12 [2]) [%] | growth at 30 µM (OVCAR-4) [%] | growth at 0.3 µM (K562) [%] | growth at 0.003 µM (SNB-19) [%] | growth at 30 µM (DU-145) [%] | growth at 0.03 µM (HCT-15 [3]) [%] | growth at 0.03 µM (MDA-MB-231) [%] | growth at 0.3 µM (MDA-MB-468 [4]) [%] | growth at 0.03 µM (SK-OV-3 [5]) [%] | growth at 0.03 µM (SW-620 [6]) [%] | growth at 0.003 µM (HCT-15 [7]) [%] | growth at 0.003 µM (NCI-H322M) [%] | growth at 3 µM (SK-OV-3 [8]) [%] | growth at 3 µM [9] [%] | also measured
1 | COc1cc(-c2nn(-c3cccc(NC(=O)Nc4ccc(Cl)c(C(F)(F)F)c4)c3)cc2-c2ccncc2)ccc1Cl | 33 | -66 | 110 | -94 | 103 | 89 | 101 | -2 | 100 | 95 | 2 | 97 | 92 | 81 | 104 | 100 | 94 | 93 | 21 | 26 | growth at 30 µM (SN12C): -19%; growth at 30 µM (SK-OV-3 [10]): -14%; growth at 0.3 µM (KM12 [11]): 95%; growth at 0.003 µM (RXF 393): 98%; growth at 3 µM (U-251): 7%; growth at 0.3 µM [12]: 98%; growth at 30 µM (NCI-H23): -16%; growth at 0.003 µM (SF-295): 92%; growth at 3 µM (HOP-92): -36%; growth at 0.003 µM (CCRF-CEM [13]): 98%; growth at 0.003 µM (MDA-MB-468 [14]): 101%; growth at 30 µM [15]: -5%; growth at 30 µM (SW-620 [16]): -1%; growth at 0.003 µM (ACHN): 102%; growth at 3 µM (PC-3): -11%; growth at 0.03 µM (IGROV-1 [17]): 102%; growth at 0.3 µM (CCRF-CEM [18]): 93%
2 | O=C(Nc1cccc(-n2cc(-c3ccncc3)c(-c3ccc(Cl)c(O)c3)n2)c1)Nc1ccc(Cl)c(C(F)(F)F)c1 | -14 | -39 | 98 | -97 | 106 | 85 | 103 | 9 | 88 | 96 | -58 | 95 | 96 | 72 | 102 | 101 | 98 | 97 | 22 | 7 | growth at 30 µM (SN12C): -6%; growth at 30 µM (SK-OV-3 [10]): -11%; growth at 0.3 µM (KM12 [11]): 96%; growth at 0.003 µM (RXF 393): 101%; growth at 3 µM (U-251): -61%; growth at 0.3 µM [12]: 90%; growth at 30 µM (NCI-H23): -55%; growth at 0.003 µM (SF-295): 92%; growth at 3 µM (HOP-92): -30%; growth at 0.003 µM (CCRF-CEM [13]): 98%; growth at 0.003 µM (MDA-MB-468 [14]): 89%; growth at 30 µM [15]: -1%; growth at 30 µM (SW-620 [16]): -43%; growth at 0.003 µM (ACHN): 97%; growth at 3 µM (PC-3): -15%; growth at 0.03 µM (IGROV-1 [17]): 109%; growth at 0.3 µM (CCRF-CEM [18]): 80%
